Laboratory results from PMC10746543, “Design principles for cyclin K molecular glue degraders” (Nature Chemical Biology, 2023).
Values joined by “and” are separate entries in the source; they are usually repeats but may differ in a detail not shown here. Identical values can stand only once.

Tests used:
[1] = target: T1, CDK12 (Homo sapiens, UniProt Q16531+Q9NYV4); experiment: Label-free quantitative mass spectrometry in MDA-MB-231 cells, CDK12; format: cell-based
T1 construct: endogenous in cells; host or cells: MDA-MB-231
How it was run: (§1)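 MDA-MB-231 cells treated 5 h with 1 µM cyclin K degrader or DMSO. Lysates digested with LysC and trypsin, then analysed by label-free diaPASEF LC-MS on a TimsTOF Pro2 with directDIA search and MS1 precursor quantification. Protein abundances scaled and analysed with limma.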

[2] = target: T2, CDK13 (Homo sapiens, UniProt Q14004+Q16531); experiment: Label-free quantitative mass spectrometry in MDA-MB-231 cells, CDK13; format: cell-based
T2 construct: endogenous in cells; host or cells: MDA-MB-231
How it was run: as §1

[3] = target: T3, CDK12–cyclin K and DDB1 (Homo sapiens, UniProt Q16531+Q9NYV4, K965R); experiment: TR-FRET ternary complex formation assay (compound titration); format: binding; conditions: for TR-FRET signal at compound concentration: replicate titrations
T3 construct: His6–CDK12 (a.a. 713–1,052); full-length or beta-propeller B domain deletion (ΔBPB: a.a. 396–705 deleted) constructs of His6–DDB1ΔBPB, StrepII–Avi–DDB1, or His6–Spy–DDB1; made in house; host or cells: Trichoplusia ni High Five insect cells (baculovirus)
How it was run: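 Delayed (70 μs) time-resolved read; FRET computed as 520 nm over 490 nm emission.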

[4] = label-free quantitative MS, replicate values
[5] = normalised to DMSO = 1, replicate values
[6] = compound concentration 0.468 nM
[7] = compound concentration 7.92001 nM
[8] = compound concentration 15.84 nM

T2 sequence (Q14004 whole entry): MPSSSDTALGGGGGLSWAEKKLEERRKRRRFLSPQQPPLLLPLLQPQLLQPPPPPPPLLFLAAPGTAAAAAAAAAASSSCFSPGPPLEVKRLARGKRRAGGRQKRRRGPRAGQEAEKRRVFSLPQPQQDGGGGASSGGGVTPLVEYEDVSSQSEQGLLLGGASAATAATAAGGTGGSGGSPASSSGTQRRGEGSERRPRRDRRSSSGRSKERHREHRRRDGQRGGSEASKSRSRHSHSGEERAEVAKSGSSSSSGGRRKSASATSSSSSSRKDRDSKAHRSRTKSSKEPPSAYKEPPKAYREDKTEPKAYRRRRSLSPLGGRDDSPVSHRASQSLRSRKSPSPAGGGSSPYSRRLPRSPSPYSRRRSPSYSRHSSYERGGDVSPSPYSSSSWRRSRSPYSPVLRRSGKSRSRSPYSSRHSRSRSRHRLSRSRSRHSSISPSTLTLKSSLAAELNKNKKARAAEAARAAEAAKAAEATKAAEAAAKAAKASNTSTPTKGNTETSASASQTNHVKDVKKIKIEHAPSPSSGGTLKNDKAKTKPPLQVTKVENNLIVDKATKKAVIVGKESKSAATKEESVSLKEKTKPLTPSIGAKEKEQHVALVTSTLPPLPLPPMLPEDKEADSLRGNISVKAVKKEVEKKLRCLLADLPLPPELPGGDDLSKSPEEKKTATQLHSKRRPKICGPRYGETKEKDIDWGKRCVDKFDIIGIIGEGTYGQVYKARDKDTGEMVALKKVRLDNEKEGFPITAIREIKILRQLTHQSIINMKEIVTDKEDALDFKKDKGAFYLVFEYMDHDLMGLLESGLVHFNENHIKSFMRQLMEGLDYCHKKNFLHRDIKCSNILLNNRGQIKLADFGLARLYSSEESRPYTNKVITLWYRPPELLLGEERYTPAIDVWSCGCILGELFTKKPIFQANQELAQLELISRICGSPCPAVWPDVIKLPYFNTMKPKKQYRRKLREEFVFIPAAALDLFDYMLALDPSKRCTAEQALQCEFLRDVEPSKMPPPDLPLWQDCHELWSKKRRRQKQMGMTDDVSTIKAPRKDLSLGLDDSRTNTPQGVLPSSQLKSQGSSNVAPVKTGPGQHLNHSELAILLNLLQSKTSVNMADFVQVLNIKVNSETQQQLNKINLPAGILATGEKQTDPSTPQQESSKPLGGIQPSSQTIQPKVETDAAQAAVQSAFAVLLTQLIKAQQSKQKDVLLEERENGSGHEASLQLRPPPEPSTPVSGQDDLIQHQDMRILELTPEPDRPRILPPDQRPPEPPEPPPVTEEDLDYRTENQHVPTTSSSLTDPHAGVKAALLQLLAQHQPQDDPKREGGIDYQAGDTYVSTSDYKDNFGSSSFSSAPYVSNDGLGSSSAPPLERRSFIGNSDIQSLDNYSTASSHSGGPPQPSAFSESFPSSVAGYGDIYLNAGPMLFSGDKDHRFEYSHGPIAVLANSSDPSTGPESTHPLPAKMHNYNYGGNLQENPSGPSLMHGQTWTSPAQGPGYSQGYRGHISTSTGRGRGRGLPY
T2 sequence (O75909 whole entry partner): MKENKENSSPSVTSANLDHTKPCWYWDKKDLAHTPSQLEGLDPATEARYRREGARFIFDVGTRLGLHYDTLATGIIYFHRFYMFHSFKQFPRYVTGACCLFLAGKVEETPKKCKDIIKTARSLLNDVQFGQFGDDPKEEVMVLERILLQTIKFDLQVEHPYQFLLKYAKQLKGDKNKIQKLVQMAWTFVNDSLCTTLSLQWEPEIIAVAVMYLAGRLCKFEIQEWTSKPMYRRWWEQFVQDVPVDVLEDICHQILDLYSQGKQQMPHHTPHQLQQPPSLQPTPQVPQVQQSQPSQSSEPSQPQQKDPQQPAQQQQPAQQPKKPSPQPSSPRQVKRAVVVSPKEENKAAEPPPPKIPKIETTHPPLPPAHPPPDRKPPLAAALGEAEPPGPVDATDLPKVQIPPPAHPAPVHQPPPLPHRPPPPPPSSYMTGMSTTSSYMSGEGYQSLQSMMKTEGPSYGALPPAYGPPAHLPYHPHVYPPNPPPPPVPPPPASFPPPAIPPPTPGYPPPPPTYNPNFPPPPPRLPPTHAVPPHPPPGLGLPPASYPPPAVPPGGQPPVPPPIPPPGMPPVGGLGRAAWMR
T2 sequence (Q16531 2-1140 limits assumed): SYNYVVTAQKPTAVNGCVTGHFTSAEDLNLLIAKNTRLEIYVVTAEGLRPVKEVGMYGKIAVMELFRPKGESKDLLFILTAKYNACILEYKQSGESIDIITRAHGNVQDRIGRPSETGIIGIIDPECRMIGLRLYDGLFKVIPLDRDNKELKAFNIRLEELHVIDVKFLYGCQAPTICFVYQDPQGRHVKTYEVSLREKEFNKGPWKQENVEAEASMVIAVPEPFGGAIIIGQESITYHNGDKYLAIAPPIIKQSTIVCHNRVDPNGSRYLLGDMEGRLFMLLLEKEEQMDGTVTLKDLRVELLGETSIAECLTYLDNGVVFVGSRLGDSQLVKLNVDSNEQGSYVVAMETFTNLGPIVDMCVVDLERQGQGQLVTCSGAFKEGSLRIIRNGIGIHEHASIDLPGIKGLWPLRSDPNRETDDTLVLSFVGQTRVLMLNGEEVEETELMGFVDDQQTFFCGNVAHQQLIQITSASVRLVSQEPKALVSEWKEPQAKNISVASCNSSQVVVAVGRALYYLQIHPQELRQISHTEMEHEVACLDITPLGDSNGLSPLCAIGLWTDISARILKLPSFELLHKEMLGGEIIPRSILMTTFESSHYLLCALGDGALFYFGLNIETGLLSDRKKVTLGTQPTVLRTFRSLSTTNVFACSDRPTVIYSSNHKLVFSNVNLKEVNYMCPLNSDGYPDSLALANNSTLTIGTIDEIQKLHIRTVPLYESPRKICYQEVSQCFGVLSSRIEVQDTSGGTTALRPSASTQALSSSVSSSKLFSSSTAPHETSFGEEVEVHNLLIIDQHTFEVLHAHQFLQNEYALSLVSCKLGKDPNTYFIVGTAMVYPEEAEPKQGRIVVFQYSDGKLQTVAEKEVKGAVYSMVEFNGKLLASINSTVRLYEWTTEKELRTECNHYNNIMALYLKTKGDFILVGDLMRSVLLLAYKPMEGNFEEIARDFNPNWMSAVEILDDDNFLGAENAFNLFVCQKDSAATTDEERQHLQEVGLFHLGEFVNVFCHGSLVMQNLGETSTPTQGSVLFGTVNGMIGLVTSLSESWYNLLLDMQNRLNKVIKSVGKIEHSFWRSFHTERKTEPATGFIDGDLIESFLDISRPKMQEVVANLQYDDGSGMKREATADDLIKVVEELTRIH
T3 sequence (Q9NYV4 713-1052 K965R): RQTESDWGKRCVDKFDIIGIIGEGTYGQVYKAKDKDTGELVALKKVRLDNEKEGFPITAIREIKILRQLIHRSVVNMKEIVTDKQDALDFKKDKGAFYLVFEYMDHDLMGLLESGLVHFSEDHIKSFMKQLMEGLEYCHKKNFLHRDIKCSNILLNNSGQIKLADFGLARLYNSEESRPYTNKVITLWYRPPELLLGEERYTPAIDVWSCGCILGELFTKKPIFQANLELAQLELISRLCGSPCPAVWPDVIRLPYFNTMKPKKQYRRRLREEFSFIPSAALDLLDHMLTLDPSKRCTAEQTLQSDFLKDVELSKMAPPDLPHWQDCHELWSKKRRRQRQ
T3 sequence (O75909 1-267 partner): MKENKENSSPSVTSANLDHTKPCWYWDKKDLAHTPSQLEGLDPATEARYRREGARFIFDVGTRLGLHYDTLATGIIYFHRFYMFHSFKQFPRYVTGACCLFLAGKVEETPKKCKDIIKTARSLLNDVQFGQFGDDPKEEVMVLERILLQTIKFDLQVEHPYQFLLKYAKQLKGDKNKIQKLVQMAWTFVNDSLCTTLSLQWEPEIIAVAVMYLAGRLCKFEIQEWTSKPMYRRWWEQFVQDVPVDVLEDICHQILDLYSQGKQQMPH
T3 sequence (Q16531 whole entry): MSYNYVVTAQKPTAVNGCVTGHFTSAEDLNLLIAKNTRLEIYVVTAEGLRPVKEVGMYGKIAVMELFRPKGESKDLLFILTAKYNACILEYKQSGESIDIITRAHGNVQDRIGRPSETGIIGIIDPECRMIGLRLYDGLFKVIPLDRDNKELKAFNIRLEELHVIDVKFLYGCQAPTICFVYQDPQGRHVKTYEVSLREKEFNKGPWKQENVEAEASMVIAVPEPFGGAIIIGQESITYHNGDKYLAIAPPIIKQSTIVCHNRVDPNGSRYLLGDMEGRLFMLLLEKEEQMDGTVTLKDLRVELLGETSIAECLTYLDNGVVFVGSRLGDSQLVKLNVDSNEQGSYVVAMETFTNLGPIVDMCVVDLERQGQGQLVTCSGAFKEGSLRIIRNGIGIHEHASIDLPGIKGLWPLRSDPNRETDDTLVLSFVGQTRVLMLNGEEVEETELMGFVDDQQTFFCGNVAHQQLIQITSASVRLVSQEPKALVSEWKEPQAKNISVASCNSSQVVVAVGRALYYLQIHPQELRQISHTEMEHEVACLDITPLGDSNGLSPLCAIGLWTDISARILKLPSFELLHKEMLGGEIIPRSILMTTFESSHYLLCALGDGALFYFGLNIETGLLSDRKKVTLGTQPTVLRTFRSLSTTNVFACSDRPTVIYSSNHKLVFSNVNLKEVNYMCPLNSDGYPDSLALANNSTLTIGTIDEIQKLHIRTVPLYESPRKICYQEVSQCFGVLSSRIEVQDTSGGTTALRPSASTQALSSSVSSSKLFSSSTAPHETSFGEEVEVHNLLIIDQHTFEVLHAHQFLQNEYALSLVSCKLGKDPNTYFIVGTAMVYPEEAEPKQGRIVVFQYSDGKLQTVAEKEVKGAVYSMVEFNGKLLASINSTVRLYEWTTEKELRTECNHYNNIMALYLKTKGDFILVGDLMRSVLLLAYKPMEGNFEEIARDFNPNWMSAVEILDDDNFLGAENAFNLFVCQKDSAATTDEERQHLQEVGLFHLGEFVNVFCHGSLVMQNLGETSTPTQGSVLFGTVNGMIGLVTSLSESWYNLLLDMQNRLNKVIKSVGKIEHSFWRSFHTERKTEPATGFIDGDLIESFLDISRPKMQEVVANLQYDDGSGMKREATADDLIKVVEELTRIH

CDK12 peptide count [1, 4]: 540.299 and 612.59
CDK12 peptide count (DMSO-normalised) [1, 5]: 0.6003 and 0.6327
CDK13 peptide count [2, 4]: 225.708 and 137.684
CDK13 peptide count (DMSO-normalised) [2, 5]: 0.3358 and 0.2116
Compound: CCC(CO)Nc1nc(NCc2ccc(-c3ccccn3)cc2)c2ncn(C(C)C)c2n1 (centres unmarked) [CR8, reference compound]
TR-FRET signal, individual replicate [3, 6]: 0.3192 and 0.333 and 0.3266 and 0.1622 and 0.1822 and 0.1545 and 0.1541
TR-FRET signal at compound concentration 0.468 nM ([3]; compound concentration 0.468 nM, raw replicate titration data): 0.3192 and 0.333 and 0.3266 and 0.1622 and 0.1822 and 0.1545 and 0.1541 and 0.2195 and 0.2132 and 0.1986 and 0.2005 and 0.1618 and 0.1794 and 0.2366 and 0.2374 and 0.2769 and 0.2739 and 0.31
TR-FRET signal at compound concentration 0.468 nM ([3]; compound concentration 0.468 nM, raw titration data): 0.3192 and 0.333 and 0.3266 and 0.1622 and 0.1822 and 0.1545 and 0.1541 and 0.2195 and 0.2132 and 0.1986 and 0.2005 and 0.1618 and 0.1794 and 0.2366 and 0.2374 and 0.2769 and 0.2739 and 0.31
TR-FRET signal at compound concentration [3, 6]: 0.3192 and 0.333 and 0.3266 and 0.1622 and 0.1822 and 0.1545 and 0.1541
TR-FRET signal, individual replicate ([3]; compound concentration 2.16 nM): 0.4573 and 0.4311 and 0.4305 and 0.2659 and 0.27 and 0.2373 and 0.2241
TR-FRET signal at compound concentration 2.16 nM ([3]; compound concentration 2.16 nM, raw replicate titration data): 0.4573 and 0.4311 and 0.4305 and 0.2659 and 0.27 and 0.2373 and 0.2241 and 0.3119 and 0.3007 and 0.2892 and 0.2693 and 0.2407 and 0.2691 and 0.3343 and 0.3434 and 0.3949 and 0.3941 and 0.4244
TR-FRET signal at compound concentration 2.16 nM ([3]; compound concentration 2.16 nM, raw titration data): 0.4573 and 0.4311 and 0.4305 and 0.2659 and 0.27 and 0.2373 and 0.2241 and 0.3119 and 0.3007 and 0.2892 and 0.2693 and 0.2407 and 0.2691 and 0.3343 and 0.3434 and 0.3949 and 0.3941 and 0.4244
TR-FRET signal at compound concentration ([3]; compound concentration 2.16 nM): 0.4573 and 0.4311 and 0.4305 and 0.2659 and 0.27 and 0.2373 and 0.2241
TR-FRET signal, individual replicate ([3]; compound concentration 3.6 nM): 0.7291 and 0.6022 and 0.6555 and 0.4637 and 0.4981 and 0.4299 and 0.4143 and 0.532
TR-FRET signal at compound concentration 3.6 nM ([3]; compound concentration 3.6 nM, raw replicate titration data): 0.7291 and 0.6022 and 0.6555 and 0.4637 and 0.4981 and 0.4299 and 0.4143 and 0.532 and 0.5274 and 0.5046 and 0.4937 and 0.4479 and 0.5082 and 0.5733 and 0.5902 and 0.6794 and 0.6674 and 0.7173
TR-FRET signal at compound concentration 3.6 nM ([3]; compound concentration 3.6 nM, raw titration data): 0.7291 and 0.6022 and 0.6555 and 0.4637 and 0.4981 and 0.4299 and 0.4143 and 0.532 and 0.5274 and 0.5046 and 0.4937 and 0.4479 and 0.5082 and 0.5733 and 0.5902 and 0.6794 and 0.6674 and 0.7173
TR-FRET signal at compound concentration ([3]; compound concentration 3.6 nM): 0.7291 and 0.6022 and 0.6555 and 0.4637 and 0.4981 and 0.4299 and 0.4143 and 0.532
TR-FRET signal, individual replicate [3, 7]: 1.345 and 0.9894 and 0.9813 and 0.8825 and 0.9549 and 0.8747 and 0.8749 and 0.9605
TR-FRET signal at compound concentration 7.92001 nM ([3]; compound concentration 7.92001 nM, raw replicate titration data): 1.345 and 0.9894 and 0.9813 and 0.8825 and 0.9549 and 0.8747 and 0.8749 and 0.9605 and 0.982 and 0.9498 and 0.9487 and 0.89 and 1.021 and 1.066 and 1.149 and 1.341 and 1.311 and 1.1731
TR-FRET signal at compound concentration 7.92001 nM ([3]; compound concentration 7.92001 nM, raw titration data): 1.345 and 0.9894 and 0.9813 and 0.8825 and 0.9549 and 0.8747 and 0.8749 and 0.9605 and 0.982 and 0.9498 and 0.9487 and 0.89 and 1.021 and 1.066 and 1.149 and 1.341 and 1.311 and 1.1731
TR-FRET signal at compound concentration [3, 7]: 1.345 and 0.9894 and 0.9813 and 0.8825 and 0.9549 and 0.8747 and 0.8749 and 0.9605
TR-FRET signal, individual replicate [3, 8]: 2.359 and 1.808 and 1.67 and 1.71 and 1.978 and 1.839 and 1.833 and 1.762
TR-FRET signal at compound concentration 15.84 nM ([3]; compound concentration 15.84 nM, raw replicate titration data): 2.359 and 1.808 and 1.67 and 1.71 and 1.978 and 1.839 and 1.833 and 1.762 and 1.792 and 1.805 and 1.852 and 1.758 and 1.925 and 1.999 and 2.166 and 2.456 and 2.406 and 2.268
TR-FRET signal at compound concentration 15.84 nM ([3]; compound concentration 15.84 nM, raw titration data): 2.359 and 1.808 and 1.67 and 1.71 and 1.978 and 1.839 and 1.833 and 1.762 and 1.792 and 1.805 and 1.852 and 1.758 and 1.925 and 1.999 and 2.166 and 2.456 and 2.406 and 2.268
TR-FRET signal at compound concentration [3, 8]: 2.359 and 1.808 and 1.67 and 1.71 and 1.978 and 1.839 and 1.833 and 1.762
TR-FRET signal, individual replicate ([3]; compound concentration 30.96 nM): 3.429 and 2.93 and 2.851 and 3.1006 and 3.279 and 3.156 and 3.142 and 2.862
TR-FRET signal at compound concentration 30.96 nM ([3]; compound concentration 30.96 nM, raw replicate titration data): 3.429 and 2.93 and 2.851 and 3.1006 and 3.279 and 3.156 and 3.142 and 2.862 and 2.958 and 2.99 and 2.943 and 2.896 and 3.197 and 3.095 and 3.319 and 3.517 and 3.418 and 3.349
